# Measured values taken from patent US20050197376A1, “Concomitant drugs” (Fujisawa Pharmaceutical Co. Ltd., priority 2004, published 2005).
# Test system: type II diabetic patients
# Assay: Concurrent oral administration with sulfonylurea to type II diabetic patients
# Assay type: in vivo, human
# Details: type II diabetic patients on sulfonylureas (glipizide, glyburide or glimepiride); 15 mg/day oral, concurrently with sulfonylurea, plural months
compound,measurement,value
"CCCCCS(=O)(=O)NC(=O)c1ccc2nc(C)n(Cc3ccc(Cl)cc3Cl)c2c1 [(3), 1-(2,4-dichlorobenzyl)-2-methyl-N-(pentylsulfonyl)-1H-benzimidazole-6-carboxamide]",HbAlc decrease,not less than 1 % point
